{"source": "the supplement of paper PMC11208160", "data": [{"assay": "recombinant barcode read abundance after kanamycin selection (control-corrected) (log10(CPM+1)); higher = more efficient recombination; sequences stand for … in AGTGCAGAGAAAATCGGCCAGTTTTCTCTGCCTGCAGTCCGCATGCCGT…ATTTATGCAGCGGACTGCCTTTCTCCCAAAGTGATAAACCGGACAGTATCATGGACCGGTTTTCCCGGTAATCCGTATTTGCAAGGTTGGTTTCACT; site = the 11-nt target", "protocol": "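Same pooled E. coli target screen (IS621 bridge recombinase, kanamycin selection, control-corrected CPM, mean of 2 biological replicates). Here the two core-binding nucleotides of the LTG and RTG of the bridge RNA target-binding loop are mutated. Target and donor CT cores are held constant, and the other 9 guide positions match the target. The target is read from the library oligo sequence. Molecule = full bridge RNA written as DNA: nt 1-80 from the library oligo, rest WT scaffold.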", "values": [{"sequence": "AAACACACATGGGTTCTAACCTGTTGCCTAG [AAACACACTAG_LTGcore_CA_RTGcore_CT] (site AAACACACTAG) (LTG core: CA, RTG core: CT)", "recombinant barcode read abundance (log10)": 0.327}, {"sequence": "AAACACACTTGGGTTCTAACCTGTTGCCTAA [AAACACACTAG_LTGcore_CT_RTGcore_TT] (site AAACACACTAG) (LTG core: CT, RTG core: TT)", "recombinant barcode read abundance (log10)": 1.12}, {"sequence": "AAACACACTTGGGTTCTAACCTGTTGCCTCC [AAACACACTAG_LTGcore_CT_RTGcore_GG] (site AAACACACTAG) (LTG core: CT, RTG core: GG)", "recombinant barcode read abundance (log10)": 1.45}, {"sequence": "AAACACACTTGGGTTCTAACCTGTTGCCTCG [AAACACACTAG_LTGcore_CT_RTGcore_CG] (site AAACACACTAG) (LTG core: CT, RTG core: CG)", "recombinant barcode read abundance (log10)": 1.01}, {"sequence": "AAACACACTTGGGTTCTAACCTGTTGCCTGC [AAACACACTAG_LTGcore_CT_RTGcore_GC] (site AAACACACTAG) (LTG core: CT, RTG core: GC)", "recombinant barcode read abundance (log10)": 0.456}, {"sequence": "AAACACAGCTGGGTTCTAACCTGTTGCCTGC [AAACACACTAG_LTGcore_GC_RTGcore_GC] (site AAACACACTAG) (LTG core: GC, RTG core: GC)", "recombinant barcode read abundance (log10)": 0.0607}, {"sequence": "AAACACAGTTGGGTTCTAACCTGTTGCCTAC [AAACACACTAG_LTGcore_GT_RTGcore_GT] (site AAACACACTAG) (LTG core: GT, RTG core: GT)", "recombinant barcode read abundance (log10)": 0.112}, {"sequence": "AAACACAGTTGGGTTCTAACCTGTTGCCTAG [AAACACACTAG_LTGcore_GT_RTGcore_CT] (site AAACACACTAG) (LTG core: GT, RTG core: CT)", "recombinant barcode read abundance (log10)": 0.804}, {"sequence": "AAACACATCTGGGTTCTAACCTGTTGCCTAG [AAACACACTAG_LTGcore_TC_RTGcore_CT] (site AAACACACTAG) (LTG core: TC, RTG core: CT)", "recombinant barcode read abundance (log10)": 0.222}, {"sequence": "AAACAGTATTGGGTTCTAACCTGTTGCCTAG [AAACAGTCTAG_LTGcore_AT_RTGcore_CT] (site AAACAGTCTAG) (LTG core: AT, RTG core: CT)", "recombinant barcode read abundance (log10)": 0.571}, {"sequence": "AAACAGTCCTGGGTTCTAACCTGTTGCCTAG [AAACAGTCTAG_LTGcore_CC_RTGcore_CT] (site AAACAGTCTAG) (LTG core: CC, RTG core: CT)", "recombinant barcode read abundance (log10)": 0.93}, {"sequence": "AAACAGTCGTGGGTTCTAACCTGTTGCCTAG [AAACAGTCTAG_LTGcore_CG_RTGcore_CT] (site AAACAGTCTAG) (LTG core: CG, RTG core: CT)", "recombinant barcode read abundance (log10)": 1.17}, {"sequence": "AAACAGTCTTGGGTTCTAACCTGTTGCCTAA [AAACAGTCTAG_LTGcore_CT_RTGcore_TT] (site AAACAGTCTAG) (LTG core: CT, RTG core: TT)", "recombinant barcode read abundance (log10)": 1.55}, {"sequence": "AAACAGTCTTGGGTTCTAACCTGTTGCCTCT [AAACAGTCTAG_LTGcore_CT_RTGcore_AG] (site AAACAGTCTAG) (LTG core: CT, RTG core: AG)", "recombinant barcode read abundance (log10)": 1.72}, {"sequence": "AAACAGTCTTGGGTTCTAACCTGTTGCCTTC [AAACAGTCTAG_LTGcore_CT_RTGcore_GA] (site AAACAGTCTAG) (LTG core: CT, RTG core: GA)", "recombinant barcode read abundance (log10)": 1.45}, {"sequence": "AAACAGTTATGGGTTCTAACCTGTTGCCTAG [AAACAGTCTAG_LTGcore_TA_RTGcore_CT] (site AAACAGTCTAG) (LTG core: TA, RTG core: CT)", "recombinant barcode read abundance (log10)": 0.0345}, {"sequence": "AAACAGTTATGGGTTCTAACCTGTTGCCTTA [AAACAGTCTAG_LTGcore_TA_RTGcore_TA] (site AAACAGTCTAG) (LTG core: TA, RTG core: TA)", "recombinant barcode read abundance (log10)": 0.0835}, {"sequence": "AAACATGATTGGGTTCTAACCTGTTGCCTAG [AAACATGCTAG_LTGcore_AT_RTGcore_CT] (site AAACATGCTAG) (LTG core: AT, RTG core: CT)", "recombinant barcode read abundance (log10)": 0.372}, {"sequence": "AAACATGCCTGGGTTCTAACCTGTTGCCTAG [AAACATGCTAG_LTGcore_CC_RTGcore_CT] (site AAACATGCTAG) (LTG core: CC, RTG core: CT)", "recombinant barcode read abundance (log10)": 0.55}, {"sequence": "AAACATGCCTGGGTTCTAACCTGTTGCCTGG [AAACATGCTAG_LTGcore_CC_RTGcore_CC] (site AAACATGCTAG) (LTG core: CC, RTG core: CC)", "recombinant barcode read abundance (log10)": 0.107}, {"sequence": "AAACATGGGTGGGTTCTAACCTGTTGCCTAG [AAACATGCTAG_LTGcore_GG_RTGcore_CT] (site AAACATGCTAG) (LTG core: GG, RTG core: CT)", "recombinant barcode read abundance (log10)": 0.427}, {"sequence": "AAACATGGTTGGGTTCTAACCTGTTGCCTAC [AAACATGCTAG_LTGcore_GT_RTGcore_GT] (site AAACATGCTAG) (LTG core: GT, RTG core: GT)", "recombinant barcode read abundance (log10)": 0.108}, {"sequence": "AAACATGTATGGGTTCTAACCTGTTGCCTAG [AAACATGCTAG_LTGcore_TA_RTGcore_CT] (site AAACATGCTAG) (LTG core: TA, RTG core: CT)", "recombinant barcode read abundance (log10)": 0.0615}, {"sequence": "AAACATGTCTGGGTTCTAACCTGTTGCCTAG [AAACATGCTAG_LTGcore_TC_RTGcore_CT] (site AAACATGCTAG) (LTG core: TC, RTG core: CT)", "recombinant barcode read abundance (log10)": 0.0742}, {"sequence": "AAACATGTCTGGGTTCTAACCTGTTGCCTGA [AAACATGCTAG_LTGcore_TC_RTGcore_TC] (site AAACATGCTAG) (LTG core: TC, RTG core: TC)", "recombinant barcode read abundance (log10)": 0.0728}, {"sequence": "ACGGGACACTGGGTTCTAACCTGTTGCAGAG [ACGGGACCTCT_LTGcore_AC_RTGcore_CT] (site ACGGGACCTCT) (LTG core: AC, RTG core: CT)", "recombinant barcode read abundance (log10)": 0.0883}, {"sequence": "ACGGGACACTGGGTTCTAACCTGTTGCAGGT [ACGGGACCTCT_LTGcore_AC_RTGcore_AC] (site ACGGGACCTCT) (LTG core: AC, RTG core: AC)", "recombinant barcode read abundance (log10)": 0.0869}, {"sequence": "ACGGGACCTTGGGTTCTAACCTGTTGCAGAG [ACGGGACCTCT_LTGcore_CT_RTGcore_CT] (site ACGGGACCTCT) (LTG core: CT, RTG core: CT)", "recombinant barcode read abundance (log10)": 2.63}, {"sequence": "ACGGGACCTTGGGTTCTAACCTGTTGCAGCC [ACGGGACCTCT_LTGcore_CT_RTGcore_GG] (site ACGGGACCTCT) (LTG core: CT, RTG core: GG)", "recombinant barcode read abundance (log10)": 1.11}, {"sequence": "ACGGGACCTTGGGTTCTAACCTGTTGCAGCG [ACGGGACCTCT_LTGcore_CT_RTGcore_CG] (site ACGGGACCTCT) (LTG core: CT, RTG core: CG)", "recombinant barcode read abundance (log10)": 0.0844}, {"sequence": "ACGGGACCTTGGGTTCTAACCTGTTGCAGGG [ACGGGACCTCT_LTGcore_CT_RTGcore_CC] (site ACGGGACCTCT) (LTG core: CT, RTG core: CC)", "recombinant barcode read abundance (log10)": 0.931}, {"sequence": "ACGGGACCTTGGGTTCTAACCTGTTGCAGTA [ACGGGACCTCT_LTGcore_CT_RTGcore_TA] (site ACGGGACCTCT) (LTG core: CT, RTG core: TA)", "recombinant barcode read abundance (log10)": 0.818}, {"sequence": "ACGGGACCTTGGGTTCTAACCTGTTGCAGTG [ACGGGACCTCT_LTGcore_CT_RTGcore_CA] (site ACGGGACCTCT) (LTG core: CT, RTG core: CA)", "recombinant barcode read abundance (log10)": 0.172}, {"sequence": "ACGGGACGATGGGTTCTAACCTGTTGCAGTC [ACGGGACCTCT_LTGcore_GA_RTGcore_GA] (site ACGGGACCTCT) (LTG core: GA, RTG core: GA)", "recombinant barcode read abundance (log10)": 0.229}, {"sequence": "ACGGGACGGTGGGTTCTAACCTGTTGCAGCC [ACGGGACCTCT_LTGcore_GG_RTGcore_GG] (site ACGGGACCTCT) (LTG core: GG, RTG core: GG)", "recombinant barcode read abundance (log10)": 0.12}, {"sequence": "AGGAGGTACTGGGTTCTAACCTGTTGCCTAG [AGGAGGTCTAG_LTGcore_AC_RTGcore_CT] (site AGGAGGTCTAG) (LTG core: AC, RTG core: CT)", "recombinant barcode read abundance (log10)": 0.105}, {"sequence": "AGGAGGTCTTGGGTTCTAACCTGTTGCCTAA [AGGAGGTCTAG_LTGcore_CT_RTGcore_TT] (site AGGAGGTCTAG) (LTG core: CT, RTG core: TT)", "recombinant barcode read abundance (log10)": 0.203}, {"sequence": "AGGAGGTCTTGGGTTCTAACCTGTTGCCTAG [AGGAGGTCTAG_LTGcore_CT_RTGcore_CT] (site AGGAGGTCTAG) (LTG core: CT, RTG core: CT)", "recombinant barcode read abundance (log10)": 1.59}, {"sequence": "AGGAGGTCTTGGGTTCTAACCTGTTGCCTAT [AGGAGGTCTAG_LTGcore_CT_RTGcore_AT] (site AGGAGGTCTAG) (LTG core: CT, RTG core: AT)", "recombinant barcode read abundance (log10)": 0.407}, {"sequence": "AGGAGGTCTTGGGTTCTAACCTGTTGCCTCA [AGGAGGTCTAG_LTGcore_CT_RTGcore_TG] (site AGGAGGTCTAG) (LTG core: CT, RTG core: TG)", "recombinant barcode read abundance (log10)": 0.322}]}, {"assay": "recombinant barcode read abundance after kanamycin selection (control-corrected) (log10(CPM+1)); higher = more efficient recombination; sequences stand for … in AGTGCAGAGAAAATCGGCCAGTTTTCTCTGCCTGCAGTCCGCATGCCGT…AGATTTATGCAGCGGACTGCCTTTCTCCCAAAGTGATAAACCGGACAGTATCATGGACCGGTTTTCCCGGTAATCCGTATTTGCAAGGTTGGTTTCACT; site = the 11-nt target", "summary_of_the_method": "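Recombination efficiency comes from barcode counts at recombinant junctions, converted to counts per million, averaged and corrected against the control. Values appear as log10(CPM+1). They were obtained from a pooled E. coli screen in which each oligo paired a target with an IS621 bridge RNA target-binding loop, and cells were plated in duplicate on chloramphenicol/ampicillin LB agar or on chloramphenicol/ampicillin/kanamycin with 0.1 mM IPTG.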", "values": [{"sequence": "TTGTACCCTTGGGTTCTAACCTGTTGCCT (site TTGTACCCTAG)", "recombinant barcode read abundance (log10)": 1.45}, {"sequence": "TTGTCGTCTTGGGTTCTAACCTGTTGCCT (site ATGTAGTCTAG)", "recombinant barcode read abundance (log10)": 0.0378}, {"sequence": "TTGTCGTCTTGGGTTCTAACCTGTTGCCT (site TTGTCGTCTAG)", "recombinant barcode read abundance (log10)": 1.25}, {"sequence": "TTGTGAGCTTGGGTTCTAACCTGTTGCGC (site AGTCACACTCT)", "recombinant barcode read abundance (log10)": 0.182}, {"sequence": "TTGTGAGCTTGGGTTCTAACCTGTTGCGC (site TTGTGAGCTGC)", "recombinant barcode read abundance (log10)": 1.68}]}]}
